Experimental data: ChEMBL document CHEMBL1201861, “Genomics of Drug Sensitity in Cancer screening data, Wellcome Trust Sanger Institute”

What was measured:
Experiment in all cases: cells
[1] = test system: COLO-829; format: functional, cell-based, Homo sapiens; conditions: Homo sapiens, COLO-829
Description: SANGER: Inhibition of human COLO-829 cell growth in a cell viability assay.

[2] = test system: Ca-Ski; format: functional, cell-based; conditions: Homo sapiens;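 note: cell viability assay measuring inhibition of Ca-Ski cell growth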
Description: SANGER: Inhibition of human Ca-Ski cell growth in a cell viability assay.

[3] = test system: Capan-2; format: functional, cell-based, Homo sapiens; conditions: Homo sapiens, Capan-2;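 note: Capan-2 cell growth inhibition, read out with a viability assay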
Description: SANGER: Inhibition of human Capan-2 cell growth in a cell viability assay.

[4] = test system: D283 Med; format: functional, cell-based, Homo sapiens; conditions: Homo sapiens, D283 Med
Description: SANGER: Inhibition of human D-283MED cell growth in a cell viability assay.

[5] = test system: DBTRG-05MG; format: functional, cell-based, Homo sapiens; conditions: Homo sapiens, DBTRG-05MG;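 note: cell viability assay measuring growth inhibition of human DBTRG-05MG cells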
Description: SANGER: Inhibition of human DBTRG-05MG cell growth in a cell viability assay.

[6] = test system: DMS-273; format: functional, cell-based, Homo sapiens; conditions: Homo sapiens, DMS-273
Description: SANGER: Inhibition of human DMS-273 cell growth in a cell viability assay.

[7] = test system: DoTc2-4510; format: functional, cell-based, Homo sapiens; conditions: Homo sapiens, DoTc2-4510
[8] = test system: EFO-27; format: functional, cell-based, Homo sapiens; conditions: Homo sapiens, EFO-27;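 note: growth inhibition of EFO-27 cells, read out with a cell viability assay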
Description: SANGER: Inhibition of human EFO-27 cell growth in a cell viability assay.

[9] = test system: ES4; format: functional, cell-based, Homo sapiens; conditions: Homo sapiens, ES4;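 note: growth inhibition of human ES4 cells, read out by a cell viability assay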
Description: SANGER: Inhibition of human ES4 cell growth in a cell viability assay.

[10] = test system: ES5; format: functional, cell-based, Homo sapiens; conditions: Homo sapiens, ES5;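 note: growth inhibition of human ES5 cells, read out by a cell viability assay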
Description: SANGER: Inhibition of human ES5 cell growth in a cell viability assay.

[11] = test system: ETK-1; format: functional, cell-based, Homo sapiens; conditions: Homo sapiens, ETK-1;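 note: growth inhibition of human ETK-1 cells, read out with a cell viability assay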
Description: SANGER: Inhibition of human ETK-1 cell growth in a cell viability assay.

[12] = test system: GOTO; format: functional, cell-based, Homo sapiens; conditions: Homo sapiens, GOTO;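 note: growth inhibition of GOTO cells, read out by a cell viability assay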
Description: SANGER: Inhibition of human GOTO cell growth in a cell viability assay.

[13] = test system: HC-1; format: functional, cell-based; conditions: Homo sapiens;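 note: growth inhibition of HC-1 cells measured by a cell viability assay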
Description: SANGER: Inhibition of human HC-1 cell growth in a cell viability assay.

[14] = test system: HCC1569; format: functional, cell-based, Homo sapiens; conditions: Homo sapiens, HCC1569;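 note: growth inhibition of human HCC1569 cells, read out with a cell viability assay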
Description: SANGER: Inhibition of human HCC1569 cell growth in a cell viability assay.

[15] = test system: HCC70; format: functional, cell-based, Homo sapiens; conditions: Homo sapiens, HCC70;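 note: cell viability assay measuring how strongly the compound suppresses proliferation of HCC70 cells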
Description: SANGER: Inhibition of human HCC70 cell growth in a cell viability assay.

[16] = test system: HH; format: functional, cell-based; conditions: Homo sapiens
Description: SANGER: Inhibition of human HH cell growth in a cell viability assay.

[17] = test system: KOSC-2; format: functional, cell-based, Homo sapiens; conditions: Homo sapiens, KOSC-2;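 note: growth inhibition of KOSC-2 cells, read out by a cell viability assay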
Description: SANGER: Inhibition of human KOSC-2 cell growth in a cell viability assay.

[18] = test system: KYSE-450; format: functional, cell-based; conditions: Homo sapiens;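 note: cell growth inhibition measured by a viability assay in human KYSE-450 cells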
Description: SANGER: Inhibition of human KYSE-450 cell growth in a cell viability assay.

[19] = test system: LB771-HNC; format: functional, cell-based, Homo sapiens; conditions: Homo sapiens, LB771-HNC;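 note: growth inhibition of LB771-HNC human cells, read out with a cell viability assay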
Description: SANGER: Inhibition of human LB771-HNC cell growth in a cell viability assay.

[20] = test system: LK-2; format: functional, cell-based, Homo sapiens; conditions: Homo sapiens, LK-2;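 note: growth inhibition of LK-2 cells, read out with a viability assay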
Description: SANGER: Inhibition of human LK-2 cell growth in a cell viability assay.

[21] = test system: MKN-45; format: functional, cell-based, Homo sapiens; conditions: Homo sapiens, MKN-45;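 note: growth inhibition of human MKN-45 cells, measured with a cell viability assay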
Description: SANGER: Inhibition of human MKN45 cell growth in a cell viability assay.

[22] = test system: MV4-11; format: functional, cell-based, MV-4-11; conditions: Homo sapiens;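 note: cell viability readout measuring growth inhibition of human MV-4-11 cells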
Description: SANGER: Inhibition of human MV-4-11 cell growth in a cell viability assay.

[23] = test system: NB12; format: functional, cell-based, Homo sapiens; conditions: Homo sapiens, NB12;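 note: growth inhibition of human NB12 cells, read out by a cell viability assay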
Description: SANGER: Inhibition of human NB12 cell growth in a cell viability assay.

[24] = test system: NB14; format: functional, cell-based; conditions: Homo sapiens;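 note: growth inhibition of NB14 cells measured with a cell viability assay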
Description: SANGER: Inhibition of human NB14 cell growth in a cell viability assay.

[25] = test system: NB5; format: functional, cell-based, Homo sapiens; conditions: Homo sapiens, NB5;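 note: growth inhibition of NB5 cells, read out as cell viability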
Description: SANGER: Inhibition of human NB5 cell growth in a cell viability assay.

[26] = test system: NCI-H1563; format: functional, cell-based, Homo sapiens; conditions: Homo sapiens, NCI-H1563;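 note: growth inhibition of human NCI-H1563 cells, read out with a cell viability assay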
Description: SANGER: Inhibition of human NCI-H1563 cell growth in a cell viability assay.

[27] = test system: NCI-H2126; format: functional, cell-based, Homo sapiens; conditions: Homo sapiens, NCI-H2126;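 note: growth inhibition of the cancer cell line, determined with a cell viability readout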
Description: SANGER: Inhibition of human NCI-H2126 cell growth in a cell viability assay.

[28] = test system: NCI-H520; format: functional, cell-based, Homo sapiens; conditions: Homo sapiens, NCI-H520;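 note: growth inhibition of NCI-H520 cells, measured by a cell viability assay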
Description: SANGER: Inhibition of human NCI-H520 cell growth in a cell viability assay.

[29] = test system: NH-12; format: functional, cell-based, Homo sapiens; conditions: Homo sapiens, NH-12;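 note: growth inhibition of NH-12 cells, read out with a cell viability assay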
Description: SANGER: Inhibition of human NH-12 cell growth in a cell viability assay.

[30] = test system: NUGC-3; format: functional, cell-based, Homo sapiens; conditions: Homo sapiens, NUGC-3;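 note: growth inhibition of human NUGC-3 cells, read out with a cell viability assay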
Description: SANGER: Inhibition of human NUGC-3 cell growth in a cell viability assay.

[31] = test system: PANC-08-13; format: functional, cell-based, Homo sapiens; conditions: Homo sapiens, PANC-08-13;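 note: cell growth inhibition, measured with a cell viability assay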
Description: SANGER: Inhibition of human PANC-08-13 cell growth in a cell viability assay.

[32] = test system: RH-1; format: functional, cell-based, Homo sapiens; conditions: Homo sapiens, RH-1;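 note: growth inhibition of human RH-1 cells, read out with a cell viability assay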
Description: SANGER: Inhibition of human RH-1 cell growth in a cell viability assay.

[33] = test system: Ramos-2G6-4C10; format: functional, cell-based; conditions: Homo sapiens;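 note: growth inhibition of the cell line, measured by a cell viability read-out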
Description: SANGER: Inhibition of human Ramos-2G6-4C10 cell growth in a cell viability assay.

[34] = test system: SAS; format: functional, cell-based, Homo sapiens; conditions: Homo sapiens, SAS;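 note: growth inhibition of SAS cells, read out with a cell viability assay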
Description: SANGER: Inhibition of human SAS cell growth in a cell viability assay.

[35] = test system: SCC-4; format: functional, cell-based, Homo sapiens; conditions: Homo sapiens, SCC-4;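 note: growth inhibition of human SCC-4 cells, read out as cell viability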
Description: SANGER: Inhibition of human SCC-4 cell growth in a cell viability assay.

[36] = test system: SK-PN-DW; format: functional, cell-based; conditions: Homo sapiens;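 note: growth inhibition measured with a viability assay on these cells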
Description: SANGER: Inhibition of human SK-PN-DW cell growth in a cell viability assay.

[37] = test system: A2780; format: functional, cell-based, Homo sapiens; conditions: Homo sapiens, A2780;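 note: growth inhibition of A2780 cells, read out with a cell viability assay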
Description: SANGER: Inhibition of human A2780 cell growth in a cell viability assay.

[38] = test system: A3-KAW; format: functional, cell-based; conditions: Homo sapiens;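 note: growth inhibition of human A3-KAW cells, read out with a cell viability assay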
Description: SANGER: Inhibition of human A3-KAW cell growth in a cell viability assay.

[39] = test system: ACN; format: functional, cell-based, Homo sapiens; conditions: Homo sapiens, ACN;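 note: growth inhibition of the human ACN cell line, read out via cell viability testing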
Description: SANGER: Inhibition of human ACN cell growth in a cell viability assay.

[40] = test system: BE-13; format: functional, cell-based; conditions: Homo sapiens;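 note: growth inhibition of human BE-13 cells, measured with a cell viability assay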
Description: SANGER: Inhibition of human BE-13 cell growth in a cell viability assay.

[41] = test system: BHT-101; format: functional, cell-based, Homo sapiens; conditions: Homo sapiens, BHT-101
Description: SANGER: Inhibition of human BHT-101 cell growth in a cell viability assay.

[42] = test system: TE-11; format: functional, cell-based, Homo sapiens; conditions: Homo sapiens, TE-11;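 note: growth inhibition of human TE-11 cells, read out by a cell viability assay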
Description: SANGER: Inhibition of human TE-11 cell growth in a cell viability assay.

[43] = test system: TE-6; format: functional, cell-based, Homo sapiens; conditions: Homo sapiens, TE-6;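 note: growth inhibition of TE-6 cells, read out with a cell viability assay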
Description: SANGER: Inhibition of human TE-6 cell growth in a cell viability assay.

[44] = test system: TGBC24TKB; format: functional, cell-based, Homo sapiens; conditions: Homo sapiens, TGBC24TKB;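 note: growth inhibition of human TGBC24TKB cells, read out with a cell viability assay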
Description: SANGER: Inhibition of human TGBC24TKB cell growth in a cell viability assay.

[45] = test system: TYK-nu; format: functional, cell-based, Homo sapiens; conditions: Homo sapiens, TYK-nu;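 note: growth inhibition of human TYK-nu cells, read out by a cell viability assay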
Description: SANGER: Inhibition of human TYK-nu cell growth in a cell viability assay.

[46] = test system: U2OS; format: functional, cell-based, Homo sapiens, U-2-OS; conditions: Homo sapiens, U2OS;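 note: growth inhibition of human U-2-OS cells, determined with a cell viability assay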
Description: SANGER: Inhibition of human U-2-OS cell growth in a cell viability assay.

[47] = test system: VMRC-RCZ; format: functional, cell-based; conditions: Homo sapiens;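 note: growth inhibition measured with a cell viability assay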
Description: SANGER: Inhibition of human VMRC-RCZ cell growth in a cell viability assay.

[48] = test system: WM-115; format: functional, cell-based, Homo sapiens; conditions: Homo sapiens, WM-115
Description: SANGER: Inhibition of human WM-115 cell growth in a cell viability assay.

[49] = test system: CAMA-1; format: functional, cell-based, Homo sapiens; conditions: Homo sapiens, CAMA-1;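 note: growth inhibition of CAMA-1 cells, read out with a cell viability assay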
Description: SANGER: Inhibition of human CAMA-1 cell growth in a cell viability assay.

With O=C(c1cc(Cc2n[nH]c(=O)c3ccccc23)ccc1F)N1CCN(C(=O)C2CC2)CC1 [OLAPARIB] the IC50 [1] was over 5 µM, the IC50 [2] was over 5 µM and the IC50 [3] was over 5 µM. It also gave an IC50 [4] of over 5 µM, an IC50 [5] of over 5 µM and an IC50 [6] of over 5 µM. It also gave an IC50 [7] of over 5 µM, an IC50 [8] of over 5 µM and an IC50 [9] of over 5 µM. It also gave an IC50 [10] of 2.88 µM, an IC50 [11] of over 5 µM and an IC50 [12] of over 5 µM. It also gave an IC50 [13] of over 5 µM, an IC50 [14] of over 5 µM and an IC50 [15] of over 5 µM. It also gave an IC50 [16] of over 5 µM, an IC50 [17] of over 5 µM and an IC50 [18] of over 5 µM. For the same compound, the IC50 [19] was over 5 µM, the IC50 [20] was over 5 µM and the IC50 [21] was over 5 µM. It also gave an IC50 [22] of 4.13 µM, an IC50 [23] of over 5 µM and an IC50 [24] of over 5 µM. The IC50 [25] was over 5 µM, the IC50 [26] was over 5 µM and the IC50 [27] was over 5 µM. The IC50 [28] was over 5 µM, the IC50 [29] was over 5 µM and the IC50 [30] was over 5 µM. The IC50 [31] was over 5 µM, the IC50 [32] was over 5 µM and the IC50 [33] was over 5 µM. For the same compound, the IC50 [34] was over 5 µM, the IC50 [35] was over 5 µM and the IC50 [36] was over 5 µM. It also gave an IC50 [37] of over 5 µM, an IC50 [38] of over 5 µM and an IC50 [39] of over 5 µM. The IC50 [40] was over 5 µM, the IC50 [41] was over 5 µM and the IC50 [42] was over 5 µM. The IC50 [43] was over 5 µM, the IC50 [44] was over 5 µM and the IC50 [45] was over 5 µM. The IC50 [46] was over 5 µM, the IC50 [47] was over 5 µM and the IC50 [48] was over 5 µM. It also gave an IC50 [49] of over 5 µM.

For CN(Cc1cnc2nc(N)nc(N)c2n1)c1ccc(C(=O)N[C@@H](CCC(=O)O)C(=O)O)cc1 [METHOTREXATE], the IC50 [1] was over 0.2 µM, the IC50 [2] was over 0.2 µM and the IC50 [3] was over 0.2 µM. The IC50 [4] was over 0.2 µM, the IC50 [5] was 0.171 µM and the IC50 [6] was over 0.2 µM. It also gave an IC50 [7] of over 0.2 µM, an IC50 [8] of over 0.2 µM and an IC50 [9] of 0.0795 µM. It also gave an IC50 [10] of over 0.2 µM, an IC50 [11] of over 0.2 µM and an IC50 [12] of over 0.2 µM. It also gave an IC50 [13] of 0.0696 µM, an IC50 [14] of over 0.2 µM and an IC50 [15] of over 0.2 µM. The IC50 [16] was 0.0316 µM, the IC50 [17] was over 0.2 µM and the IC50 [18] was over 0.2 µM. For the same compound, the IC50 [19] was over 0.2 µM, the IC50 [20] was over 0.2 µM and the IC50 [21] was over 0.2 µM. The IC50 [22] was 0.0194 µM, the IC50 [23] was over 0.2 µM and the IC50 [24] was 0.075 µM. For the same compound, the IC50 [25] was over 0.2 µM, the IC50 [26] was over 0.2 µM and the IC50 [27] was over 0.2 µM. For the same compound, the IC50 [28] was over 0.2 µM, the IC50 [29] was over 0.2 µM and the IC50 [30] was over 0.2 µM. For the same compound, the IC50 [31] was over 0.2 µM, the IC50 [32] was over 0.2 µM and the IC50 [33] was 0.0269 µM. It also gave an IC50 [34] of over 0.2 µM, an IC50 [35] of over 0.2 µM and an IC50 [36] of over 0.2 µM. The IC50 [37] was 0.0545 µM, the IC50 [38] was 0.00892 µM and the IC50 [39] was over 0.2 µM. It also gave an IC50 [40] of 0.0387 µM, an IC50 [41] of over 0.2 µM and an IC50 [42] of over 0.2 µM. It also gave an IC50 [43] of over 0.2 µM, an IC50 [44] of over 0.2 µM and an IC50 [45] of 0.197 µM. The IC50 [46] was 0.182 µM, the IC50 [47] was over 0.2 µM and the IC50 [48] was over 0.2 µM. The IC50 [49] was over 0.2 µM.
